In US20060211632A1, “PXR agonists for cardiovascular disease” (priority 2005, published 2006):

Legend:
CYP3A = CYP3A activity in rats (hepatic microsomal EDM activity, ethosuximide clearance); type: in vivo, rat
Procedure: (§1) Treatments were administered by gavage once daily in the morning for eight (8) days.
Ethosuximide was prepared as a 3.5% (w/v) solution dissolved in normal saline. Ethosuximide was administered in a dose of 35 mg/kg via tail vein injection 24 hours following the eighth pretreatment dose.
(§2) Whole blood was collected by cardiac puncture under CO2 anesthesia 8 hours following ethosuximide infusion. Animals were then sacrificed using CO2 and cervical dislocation. Livers were excised and used for analysis of erythromycin demethylase activity (as described in the Slama et al. reference) and hepatic apoA1 mRNA. Plasma was separated from whole blood anticoagulated with 5 mM EDTA at room temperature using a bench top centrifuge (5000 rpm) for 5 minutes. Plasma was stored unpreserved at −20° C. for up to 5 days, and subsequently analyzed for ethosuximide and for HDL-C. Concentrations of ethosuximide and HDL-C were measured in plasma by fluorescence polarization immunoassay (fpia) using a TDx analyzer (Abbott Laboratories, Irving, Tex.) and commercially available reagents (Abbott Laboratories, Abbott Park, Ill.).

HDL-C = HDL-C in rats after 8 days of treatment; type: in vivo, rat
Procedure: as §1, §2

serum ApoA1 [1] = test: Serum apoA1 in PXR-KO mice after 7 days of treatment; type: in vivo; conditions: for apoA1 relative to control: gavage once daily 7 days, gemfibrozil 20 mg/kg, others 100 mg/kg
Procedure: (§3) PXR-KO mice were treated with either rifampicin, gemfibrozil, or CDD 3540. In all cases methylcellulose was used as a vehicle control. These chemicals were administered, as a suspension in 1% methylcellulose (vehicle) by gavage using a 20 G—1½-inch feeding needle. The animals were treated in groups of three and for each treated group two mice were treated simultaneously with methylcellulose (vehicle). Each treatment was given once daily in the morning for seven days. The doses were 100 mg/kg for CTZ, rifampicin, CDD 3540, phenobarbital and TCPOBOP, 6 mg/kg and 60 mg/Kg for troglitazone and 0.175 mg/Kg and 1.75 mg/Kg for hyperforin, and for gemfibrozil 20 mg/Kg and 100 mg/Kg. The volume of vehicle used to suspend the treatment drugs and the dose of vehicle for control group was 7 ml/kg.
(§4) After the completion of the treatment (i.e. on day 8), blood samples were collected from the tail of the animals for serum HDL-C and ApoA1 determination. Blood samples were allowed to clot for 2 hours, centrifuged at 14,000 rpm for 20 minutes, and serum was collected. The serum samples were then stored at −20° C. for up to 24 hours before quantitative determination of HDL-C and ApoA1.
An immuno-turbidimetric assay was developed for quantitative determination of ApoA1 in mouse serum. Commercially available stock solution of purified mouse ApoA1 (79 mg/dl) was used to construct a standard curve. A potassium phosphate buffer solution was prepared by diluting 1 ml of monobasic 1.0 M potassium phosphate buffer to 10 ml with distilled water, and the pH of the solution was adjusted to 7.2 using 0.1 N NaOH. […] 1 μl of mouse plasma was mixed with 3 μl of distilled water for quantitation of apoA1. […] Absorbance was measured at 580 nm using a Beckmann DU640 Spectrophotometer. Each sample or standard was analyzed twice, and the average of both readings was used. […]
Statistical treatments for HDL-C and apoA1 in mice were identical. […] Normality and homoscedasticity (constancy of variance across groups) were evaluated, with an appropriate data transformation (logarithmic) applied if necessary. […]

serum ApoA1 [2] = test: Serum apoA1 in wild-type mice after 7 days of treatment (immuno-turbidimetric assay); type: in vivo, wild-type (WT; C57BL/6) mice; conditions: for apoA1 relative to controls (methylcellulose): gavage once daily 7 days, 100 mg/kg, gemfibrozil 20 mg/Kg, troglitazone 6 and 60 mg/Kg, Dunnett's procedure
Procedure: as §3, §4
An immuno-turbidimetric assay was developed for quantitative determination of ApoA1 in mouse serum. Commercially available stock solution of purified mouse ApoA1 (79 mg/dl) was used to construct a standard curve. A potassium phosphate buffer solution was prepared by diluting 1 ml of monobasic 1.0 M potassium phosphate buffer to 10 ml with distilled water, and the pH of the solution was adjusted to 7.2 using 0.1 N NaOH. […] A dilution of 1:4000 of the stock concentration was used per the manufacturer's recommendation. The standard curve was prepared with 0, 39.5, 79, and 158 mg/dl of mouse apoA1. 1 μl of mouse plasma was mixed with 3 μl of distilled water for quantitation of apoA1. 500 μl of buffer solution was added to 4 μl of total sample volume prepared as described. After 5 minutes, 100 μl of antibody solution was added. The mixture was allowed to incubate at 37° C. for 3 minutes. Absorbance was measured at 580 nm using a Beckmann DU640 Spectrophotometer. Each sample or standard was analyzed twice, and the average of both readings was used. Serum ApoA1 concentrations from control mice were also compared with the normal ApoA1 levels in mice, obtained from the literature, to affirm the validity of the assay procedure.
Statistical treatments for HDL-C and apoA1 in mice were identical. For each of these variables, three basic analyses were performed, one for WT mice, one for PXR-KOs, and one for the two groups combined. Statistical analysis was performed in SAS (SAS Release 8, 1999, SAS Institute Inc., Cary, N.C.). In all cases the primary method of comparing treatments was ANOVA. Prior to performing this analysis, both variables were normalized by the geometric mean of their associated controls. Normality and homoscedasticity (constancy of variance across groups) were evaluated, with an appropriate data transformation (logarithmic) applied if necessary. These properties were checked before (to evaluate the need for transformation) and after transformation (to confirm the adequacy of the transformation) using normal probability plots and Levene's test for equality of variances (Snedecor et al., Statistical Methods, 8th Edition, Iowa State University Press, pp. 59-62 and 252-253, 1989). […]

hepatic apoA1 mRNA [3] = test: Hepatic apoA1 mRNA in rats after 8 days of treatment; type: in vivo, rat
Procedure: as §2, with “Treatments were administered by gavage once daily in the morning for eight (8) days. Whole” for “Whole”, “-20°” for “−20°”, “Ill.). […] Hepatic apoA1 mRNA was measured by Northern Blot hybridization to total hepatic RNA with oligonucleotides for apoprotein A1 and elongation factor-1α (EF-1α). The procedure was similar to that described in the Slama et al. reference for hepatic CYP3A mRNA. […]” for “Ill.).”

hepatic apoA1 mRNA [4] = test: Time course of hepatic apoA1 mRNA in rats (Northern blot); type: in vivo, rat; conditions: 50 mg/Kg by gavage once daily, beginning after treatment day 2 and constant thereafter, p<0.05 vs vehicle controls
Procedure: Hepatic apoA1 mRNA was measured by Northern Blot hybridization to total hepatic RNA with oligonucleotides for apoprotein A1 and elongation factor-1α (EF-1α). The procedure was similar to that described in the Slama et al. reference for hepatic CYP3A mRNA. The following oligonucleotide sequence used for rat apoA1 mRNA was based on the nucleotide sequence for rat apoA1 described by Haddad et al. (“Linkage, evolution and expression of the rat apolipoprotein A-1, C-III, and A-IV genes,” J Biol Chem 1986; 261: 13268-13277): 3′ CTACGTCAGTTCCTGTCGCCGTCTCTGATACACAGGGTCAAACTTAGGAGGTGAAACCCG 5′.
[…] were dosed with CDD 3540 (50 mg/Kg) by gavage once daily for 8 days, and three rats were treated with methylcellulose (vehicle controls). Groups of three treated rats were sacrificed at 6 and 12 h after the first dose, 12 and 24 h after the second dose, and at 12 hours after doses 4-8, respectively. Hepatic apoA1 mRNA was quantitated by northern blot analysis as described above.
Temporal differences in hepatic apoA1 mRNA in rats were evaluated by a simple Analysis of Variance (ANOVA) and a Tukey's post-hoc test.

serum HDL-C = test: Serum HDL-C in wild-type mice after 7 days of treatment; type: in vivo, wild-type (WT; C57BL/6) mice; conditions: for HDL-C relative to controls (methylcellulose): gavage once daily 7 days, 100 mg/kg, gemfibrozil 20 mg/kg, troglitazone 6 and 60 mg/Kg, Dunnett's procedure
Procedure: In all cases methylcellulose was used as a vehicle control. These chemicals were administered, as a suspension in 1% methylcellulose (vehicle) by gavage using a 20 G—1½-inch feeding needle. The animals were treated in groups of three and for each treated group two mice were treated simultaneously with methylcellulose (vehicle). Each treatment was given once daily in the morning for seven days. […] The volume of vehicle used to suspend the treatment drugs and the dose of vehicle for control group was 7 ml/kg. Doses were selected based on the results obtained from previous studies in rats except for troglitazone and hyperforin, for which doses were weight-adjusted using estimates of average daily human doses as reference. After the completion of the treatment (i.e. on day 8), blood samples were collected from the tail of the animals for serum HDL-C and ApoA1 determination. Blood samples were allowed to clot for 2 hours, centrifuged at 14,000 rpm for 20 minutes, and serum was collected. The serum samples were then stored at −20° C. for up to 24 hours before quantitative determination of HDL-C and ApoA1. HDL-C was determined quantitatively in the serum using Liquid Direct HDL kits. The kit contained reagent 1, reagent 2, and HDL calibrator. The assay consisted of two steps. […] The peroxide byproduct of this reaction is rendered non-colored via catalase reduction. […] In this second step, the catalase is inhibited, the remaining HDL cholesterol specifically reacts with cholesterol esterase and cholesterol oxidase, and in the presence of peroxidase the peroxide byproduct reacts with 4-aminoantipyrine and HDAOS to form a colored […] dye. Both these reactions were allowed to occur at 37° C. […] Each sample was analyzed twice, and the average of both readings was used. Statistical treatments for HDL-C and apoA1 in mice were identical. For each of these variables, three basic analyses were performed, one for WT mice, one for PXR-KOs, and one for the two groups combined. Statistical analysis was performed in SAS (SAS Release 8, 1999, SAS Institute Inc., Cary, N.C.). In all cases the primary method of comparing treatments was ANOVA. Prior to performing this analysis, both variables were normalized by the geometric mean of their associated controls. Normality and homoscedasticity (constancy of variance across groups) were evaluated, with an appropriate data transformation (logarithmic) applied if necessary. These properties were checked before (to evaluate the need for transformation) and after transformation (to confirm the adequacy of the transformation) using normal probability plots and Levene's test for equality of variances (Snedecor et al., Statistical Methods, 8th Edition, Iowa State University Press, pp. 59-62 and 252-253, 1989). […]

Fc1ccc(C(c2ccc(F)cc2)(c2ccc(F)cc2)n2ccnc2)cc1 [CDD 3540]
CYP3A activity (CYP3A): increase
HDL-C (HDL-C): increase
apoA1 relative to control (serum ApoA1 [1]): neither rifampin nor CDD 3540 elicited significant changes
increase in apoA1 relative to controls (serum ApoA1 [2]; 100 mg/kg once daily 7 days): ~3.7 fold
apoA1 relative to controls (methylcellulose) (serum ApoA1 [2]): significantly elevated
apoA1 (hepatic apoA1 mRNA [3]): increase
increase in hepatic apoA1 (hepatic apoA1 mRNA [4]): ~45%
HDL-C relative to controls (methylcellulose) (serum HDL-C): significantly elevated

Clc1cnc(Oc2ccc(Oc3ncc(Cl)cc3Cl)cc2)c(Cl)c1 [TCPOBOP, 1,4-bis[2-(3,5-dichloropyridyloxy)]benzene]
apoA1 relative to controls (methylcellulose) (serum ApoA1 [2]): did not significantly elevate
HDL-C relative to controls (methylcellulose) (serum HDL-C): did not significantly elevate

Cc1ccc(C)c(OCCCC(C)(C)C(=O)O)c1 [gemfibrozil]
apoA1 relative to control (serum ApoA1 [1]): significantly increase
increase in apoA1 relative to control (serum ApoA1 [1]; gemfibrozil 20 mg/kg once daily 7 days): ~1.7 fold
dose at peak of the dose-response curve (serum ApoA1 [2]; apoA1 and HDL-C, declined with higher doses): 20 mg/kg
apoA1 relative to controls (methylcellulose) (serum ApoA1 [2]): significantly elevated
HDL-C relative to controls (methylcellulose) (serum HDL-C): significantly elevated

CO[C@H]1/C=C/O[C@@]2(C)Oc3c(C)c(O)c4c(O)c(c(/C=N/N5CCN(C)CC5)c(O)c4c3C2=O)NC(=O)/C(C)=C\C=C\[C@H](C)[C@H](O)[C@@H](C)[C@@H](O)[C@@H](C)[C@H](OC(C)=O)[C@@H]1C [rifampin, rifampicin]
increase in HDL-C (serum HDL-C; 100 mg/Kg once daily 7 days): about 25%
